Results from article PMC9607164, “Rational Design, Synthesis and Biological Evaluation of Novel Pyrazoline-Based Antiproliferative Agents in MCF-7 Cancer Cells” (Pharmaceuticals, 2022).
Like-named read-outs stand apart in the source and are kept apart here.

What was measured:
[1] = test system: MCF-10A normal breast cells; experiment: MTT cytotoxicity assay on MCF-10A; type: cell-based; settings: Homo sapiens, 48 h, n = 3, read-out: IC50 ± SD, MCF-10A
Procedure: (§1) Both breast cancer (MCF-7) and normal breast (MCF-10A) cells were purchased from National Research Institute, Egypt, and maintained in complete media of RPMI-1640 medium L-Glutamine (Lonza Verviers SPRL, Belgium, cat#12-604F). Cells were incubated following standard tissue culture work. Cell viability was measured 48 h later, utilizing MTT colorimetric assay (Promega, Madison, WI, USA). Absorbance was consequently assessed (at 570 nm) using an ELISA microplate reader (BIO-RAD, model iMark, Tokyo, Japan). Using GraphPad Prism 7, the IC50 values were determined, and the viability at each concentration was determined in comparison to the control.

[2] = test system: MCF-7 cancer cells; experiment: MTT cytotoxicity assay on MCF-7; type: cell-based; settings: MTT assay, 48 h, n = 3, NA: Non-Active, read-out: IC50 ± SD, MCF-7
Procedure: as §1

[3] = target: T1, EGFR Kinase (Homo sapiens, UniProt P00533); experiment: EGFR Kinase Assay Kit (BPS Bioscience); type: biochemical; settings: mean ± SD of three replicates, five concentrations
T1 construct: purchased BPS Bioscience 40321
Procedure: (§2) Compounds’ autophosphorylation percentage inhibition was computed according to the following equation: […] , then IC50 values were calculated using GraphPad prism software.

[4] = target: T2, HER2 Kinase (Homo sapiens, UniProt P04626); experiment: HER2 Kinase Assay Kit (BPS Bioscience); type: biochemical; settings: mean ± SD of three replicates, five concentrations
T2 construct: purchased BPS Bioscience 40721
Procedure: as §2

[5] = test system: breast cancer cells MCF-7; settings: cited from earlier work
[6] = type: in vivo; settings: 10 mg/kg BW, IP; MCF-7 control 32.28 g, normal 24.5 g
Excerpt: In vivo experiments for lethal dose (LD50), experimental design, tumor mass, blood parameters, histopathological examinations were accomplished as previously described. After inoculating the tumor cells, masses of the solid tumor started to appear ten days later. […]. Animals from each group were sacrificed, and their blood was drawn to measure hemoglobin (Hb), red blood cell (RBC), white blood cell (WBC), and liver enzymes (ALT, AST, albumin, and total protein) levels.

[7] = reported pyrazoline-based agents

T1 sequence (P00533 25-1210): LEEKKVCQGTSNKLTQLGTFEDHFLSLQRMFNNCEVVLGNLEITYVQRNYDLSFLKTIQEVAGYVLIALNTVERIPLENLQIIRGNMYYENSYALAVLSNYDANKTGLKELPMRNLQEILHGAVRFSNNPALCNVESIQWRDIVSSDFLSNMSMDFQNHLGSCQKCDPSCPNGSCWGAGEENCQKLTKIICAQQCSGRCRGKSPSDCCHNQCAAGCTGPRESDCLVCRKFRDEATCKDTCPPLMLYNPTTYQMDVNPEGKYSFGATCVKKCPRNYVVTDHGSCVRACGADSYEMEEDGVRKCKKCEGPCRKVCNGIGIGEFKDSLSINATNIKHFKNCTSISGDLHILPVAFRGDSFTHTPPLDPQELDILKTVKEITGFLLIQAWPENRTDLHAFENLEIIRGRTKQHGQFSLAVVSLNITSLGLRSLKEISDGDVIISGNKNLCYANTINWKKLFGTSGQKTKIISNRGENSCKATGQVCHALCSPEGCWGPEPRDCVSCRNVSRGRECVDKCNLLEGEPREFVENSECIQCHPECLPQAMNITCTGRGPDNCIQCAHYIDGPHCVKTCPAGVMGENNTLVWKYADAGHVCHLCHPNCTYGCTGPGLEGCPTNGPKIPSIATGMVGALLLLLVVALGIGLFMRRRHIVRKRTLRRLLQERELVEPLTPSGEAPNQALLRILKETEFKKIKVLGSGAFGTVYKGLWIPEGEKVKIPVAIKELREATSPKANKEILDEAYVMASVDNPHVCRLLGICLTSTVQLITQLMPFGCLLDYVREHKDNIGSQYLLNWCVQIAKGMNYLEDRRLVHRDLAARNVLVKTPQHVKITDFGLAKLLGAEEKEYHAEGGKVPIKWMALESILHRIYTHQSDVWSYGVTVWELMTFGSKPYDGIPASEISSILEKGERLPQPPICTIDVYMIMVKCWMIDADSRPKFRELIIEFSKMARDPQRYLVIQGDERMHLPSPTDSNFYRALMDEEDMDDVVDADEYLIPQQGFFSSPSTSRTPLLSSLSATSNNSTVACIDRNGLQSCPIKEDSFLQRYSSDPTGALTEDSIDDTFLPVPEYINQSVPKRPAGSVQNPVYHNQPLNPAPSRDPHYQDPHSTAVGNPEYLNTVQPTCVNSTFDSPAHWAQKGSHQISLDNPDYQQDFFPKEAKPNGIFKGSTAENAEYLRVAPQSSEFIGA
T2 sequence (P04626 23-1255): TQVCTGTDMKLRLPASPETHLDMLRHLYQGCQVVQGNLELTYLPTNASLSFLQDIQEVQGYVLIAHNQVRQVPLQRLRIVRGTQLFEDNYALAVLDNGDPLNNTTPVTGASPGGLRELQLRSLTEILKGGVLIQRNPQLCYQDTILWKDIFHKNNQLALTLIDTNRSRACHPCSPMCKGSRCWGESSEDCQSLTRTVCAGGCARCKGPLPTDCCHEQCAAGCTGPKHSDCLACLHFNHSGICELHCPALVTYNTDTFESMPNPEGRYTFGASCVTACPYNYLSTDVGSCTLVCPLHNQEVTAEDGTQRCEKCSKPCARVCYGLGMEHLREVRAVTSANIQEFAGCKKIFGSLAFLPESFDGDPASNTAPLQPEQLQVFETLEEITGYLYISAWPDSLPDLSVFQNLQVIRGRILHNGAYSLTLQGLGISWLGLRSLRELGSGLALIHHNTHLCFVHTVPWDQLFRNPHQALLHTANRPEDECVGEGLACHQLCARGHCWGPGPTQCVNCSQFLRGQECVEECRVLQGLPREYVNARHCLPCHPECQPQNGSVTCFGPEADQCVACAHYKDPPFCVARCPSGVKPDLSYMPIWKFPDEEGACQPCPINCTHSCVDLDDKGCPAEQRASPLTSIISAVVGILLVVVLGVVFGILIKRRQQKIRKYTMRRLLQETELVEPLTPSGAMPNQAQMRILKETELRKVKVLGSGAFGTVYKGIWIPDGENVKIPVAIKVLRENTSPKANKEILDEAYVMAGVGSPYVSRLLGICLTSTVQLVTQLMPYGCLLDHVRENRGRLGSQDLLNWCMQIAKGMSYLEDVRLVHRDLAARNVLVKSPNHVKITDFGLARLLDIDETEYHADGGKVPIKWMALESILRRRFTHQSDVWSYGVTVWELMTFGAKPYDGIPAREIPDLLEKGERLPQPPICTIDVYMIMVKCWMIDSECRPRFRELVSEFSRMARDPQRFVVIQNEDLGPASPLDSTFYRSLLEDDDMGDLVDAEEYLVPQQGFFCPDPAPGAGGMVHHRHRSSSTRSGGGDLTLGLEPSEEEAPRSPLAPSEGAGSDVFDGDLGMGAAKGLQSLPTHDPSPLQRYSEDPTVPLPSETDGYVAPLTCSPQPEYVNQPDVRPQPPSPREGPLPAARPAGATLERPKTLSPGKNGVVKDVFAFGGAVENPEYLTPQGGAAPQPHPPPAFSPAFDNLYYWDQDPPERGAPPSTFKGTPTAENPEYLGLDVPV

SMILES: COc1ccc(C2=NN(c3nc(-c4ccccc4)cs3)C(c3ccccc3)C2)cc1OC (stereo not drawn) [Compound 6a, 2-(3-(3,4-Dimethoxyphenyl)-5-phenyl-4,5-dihydro-1H-pyrazol-1-yl)-4-phenylthiazole]
- IC50 [1]: ≥ 50 µM
- melting point: 202 to 205 °C

SMILES: COc1ccc(C2CC(c3ccc(OC)c(OC)c3)=NN2c2nc(C)c(C(C)=O)s2)cc1 (stereo not drawn) [Compound 9b, 1-(2-(3-(3,4-Dimethoxyphenyl)-5-(4-methoxyphenyl)-4,5-dihydro-1H-pyrazol-1-yl)-4-methylthiazol-5-yl)ethan-1-one]
- IC50 ([2]; Homo sapiens, MCF7, 48 h): 31.7 ± 1.96 µM
- IC50 [1]: 26.3 ± 1.07 µM
- melting point: 213 to 215 °C

SMILES: CCOC(=O)c1sc(N2N=C(c3ccc(OC)c(OC)c3)CC2c2ccc(OC)cc2)nc1C (stereo not drawn) [Compound 9e, Ethyl 2-(3-(3,4-Dimethoxyphenyl)-5-(4-methoxyphenyl)-4,5-dihydro-1H-pyrazol-1-yl)-4-methylthiazole-5-carboxylate]
- IC50 ([2]; Homo sapiens, MCF7, 48 h): 18.9 ± 1.03 µM
- IC50 [1]: 43.6 ± 1.85 µM
- melting point: 169 to 171 °C

SMILES: COc1ccc(C2=NN(C(N)=S)C(c3ccccc3)C2)cc1OC (stereo not drawn) [Compound 3a, 3-(3,4-Dimethoxyphenyl)-5-phenyl-4,5-dihydro-1H-pyrazole-1-carbothioamide]
- IC50 [1]: 36.5 ± 1.15 µM
- melting point: 188 to 190 °C

SMILES: COc1ccc(C2CC(c3ccc(OC)c(OC)c3)=NN2c2nc(-c3ccc(F)cc3)cs2)cc1 (stereo not drawn) [Compound 6g, 2-(3-(3,4-Dimethoxyphenyl)-5-(4-methoxyphenyl)-4,5-dihydro-1H-pyrazol-1-yl)-4-(4-fluorophenyl)thiazole]
- IC50 ([2]; Homo sapiens, MCF7, 48 h): 15.4 ± 0.79 µM
- IC50 [1]: 24.5 ± 1.01 µM
- melting point: 140 to 143 °C

SMILES: COc1ccc(C2CC(c3ccc(OC)c(OC)c3)=NN2c2nc(-c3ccc(C)cc3)cs2)cc1 (stereo not drawn) [Compound 6f, 2-(3-(3,4-Dimethoxyphenyl)-5-(4-methoxyphenyl)-4,5-dihydro-1H-pyrazol-1-yl)-4-(p-tolyl)thiazole]
- IC50 ([2]; Homo sapiens, MCF7, 48 h): 11.1 ± 0.85 µM
- IC50 [1]: 35.4 ± 1.84 µM
- IC50 [3]: 0.23 ± 0.024 µM
- IC50 [4]: 0.12 ± 0.025 µM
- melting point: 150 to 152 °C

SMILES: COc1ccc(C2=NN(c3nc(C)c(C(C)=O)s3)C(c3ccc(Cl)cc3)C2)cc1OC (stereo not drawn) [Compound 9c, 1-(2-(5-(4-Chlorophenyl)-3-(3,4-dimethoxyphenyl)-4,5-dihydro-1H-pyrazol-1-yl)-4-methylthiazol-5-yl)ethan-1-one]
- IC50 [1]: ≥ 50 µM
- melting point: 215 to 218 °C

SMILES: COc1ccc(C2=NN(c3nc(C)c(C(C)=O)s3)C(c3ccccc3)C2)cc1OC (stereo not drawn) [Compound 9a, 1-(2-(3-(3,4-Dimethoxyphenyl)-5-phenyl-4,5-dihydro-1H-pyrazol-1-yl)-4-methylthiazol-5-yl)ethan-1-one]
- IC50 ([2]; Homo sapiens, MCF7, 48 h): 34.2 ± 1.68 µM
- IC50 [1]: 18.9 ± 1.09 µM
- melting point: 235 to 238 °C

SMILES: O=C1CCC(=O)N1CC(=O)N1N=C(c2ccccc2)CC1c1ccccc1 (stereo not drawn) [II]
- IC50 [5, 7]: 0.42 µM

SMILES: Cc1nc(Nc2ncc(C(=O)Nc3c(C)cccc3Cl)s2)cc(N2CCN(CCO)CC2)n1 [Dasatinib]
- MCF-7 (measure not named) ([5]; Figure 2, reported agent): 17.03 µM

SMILES: COc1ccc(C2=NN(c3nc(-c4ccc(F)cc4)cs3)C(c3ccccc3)C2)cc1OC (stereo not drawn) [Compound 6c, 2-(3-(3,4-Dimethoxyphenyl)-5-phenyl-4,5-dihydro-1H-pyrazol-1-yl)-4-(4-fluorophenyl)thiazole]
- IC50 ([2]; Homo sapiens, MCF7, 48 h): 18.7 ± 0.84 µM
- IC50 [1]: ≥ 50 µM
- melting point: 135 to 140 °C

SMILES: COc1ccc(C2=NN(c3nc(-c4ccc(C)cc4)cs3)C(c3ccc(Cl)cc3)C2)cc1OC (stereo not drawn) [Compound 6j, 2-(5-(4-Chlorophenyl)-3-(3,4-dimethoxyphenyl)-4,5-dihydro-1H-pyrazol-1-yl)-4-(p-tolyl)thiazole]
- IC50 [1]: ≥ 50 µM
- melting point: 189 to 191 °C

SMILES: CS(=O)(=O)CCNCc1ccc(-c2ccc3ncnc(Nc4ccc(OCc5cccc(F)c5)c(Cl)c4)c3c2)o1 [Lapatinib, reference compound]
- IC50 ([2]; Homo sapiens, MCF7, 48 h): 7.45 µM
- IC50 [1]: ≥ 50 µM
- mice weight [6]: 27.35 g

SMILES: COc1ccc(C2CC(c3ccc(OC)c(OC)c3)=NN2C(N)=S)cc1 (stereo not drawn) [Compound 3b, 3-(3,4-Dimethoxyphenyl)-5-(4-methoxyphenyl)-4,5-dihydro-1H-pyrazole-1-carbothioamide]
- IC50 ([2]; Homo sapiens, MCF7, 48 h): 23.6 ± 0.72 µM
- IC50 [1]: 34.8 ± 1.35 µM
- melting point: 221 to 223 °C

SMILES: COc1ccc(C2=NN(c3nc(-c4ccc(Cl)cc4)cs3)C(c3ccc(Cl)cc3)C2)cc1OC (stereo not drawn) [Compound 6l, 4-(4-Chlorophenyl)-2-(5-(4-chlorophenyl)-3-(3,4-dimethoxyphenyl)-4,5-dihydro-1H-pyrazol-1-yl)thiazole]
- IC50 ([2]; Homo sapiens, MCF7, 48 h): 17.6 ± 0.97 µM
- IC50 [1]: 35.7 ± 1.85 µM
- melting point: 195 to 197 °C

SMILES: COc1ccc2ccc(=O)oc2c1C1=NN(S(=O)(=O)c2ccc(C)cc2)C(c2ccccc2)C1 (stereo not drawn) [III]
- IC50 [5, 7]: 34.1 µM

SMILES: O=C1c2ccccc2C(=O)N1CCc1csc(N(/N=C/c2cc(Cl)cc(Cl)c2)C(=O)CCl)n1 [V]
- IC50 ([5]; reported thiazole-based agent): 9.06 µM

SMILES: COc1ccc(C2CC(c3ccc(OC)c(OC)c3)=NN2c2nc(-c3ccc(Cl)cc3)cs2)cc1 (stereo not drawn) [Compound 6h, 4-(4-Chlorophenyl)-2-(3-(3,4-dimethoxyphenyl)-5-(4-methoxyphenyl)-4,5-dihydro-1H-pyrazol-1-yl)thiazole]
- IC50 ([2]; Homo sapiens, MCF7, 48 h): 35.2 ± 1.27 µM
- IC50 [1]: 26.5 ± 1.59 µM
- melting point: 149 to 151 °C

SMILES: COc1ccc(C2=NN(C(N)=S)C(c3ccc(Cl)cc3)C2)cc1OC (stereo not drawn) [Compound 3c, 5-(4-Chlorophenyl)-3-(3,4-dimethoxyphenyl)-4,5-dihydro-1H-pyrazole-1-carbothioamide]
- IC50 ([2]; Homo sapiens, MCF7, 48 h): 11.1 µM
- IC50 [2]: 11.2 ± 0.54 µM
- IC50 [1]: ≥ 50 µM
- IC50 [3]: 0.067 ± 0.009 µM
- IC50 [4]: 0.07 ± 0.018 µM
- melting point: 230 to 232 °C

SMILES: CCOC(=O)c1sc(N2N=C(c3ccc(OC)c(OC)c3)CC2c2ccc(Cl)cc2)nc1C (stereo not drawn) [Compound 9f, Ethyl 2-(5-(4-Chlorophenyl)-3-(3,4-dimethoxyphenyl)-4,5-dihydro-1H-pyrazol-1-yl)-4-methylthiazole-5-carboxylate]
- IC50 ([2]; Homo sapiens, MCF7, 48 h): 8.35 ± 0.29 µM
- IC50 [1]: ≥ 50 µM
- IC50 [3]: 0.051 ± 0.003 µM
- IC50 [4]: 0.14 ± 0.006 µM
- melting point: 197 to 200 °C

SMILES: COc1ccc(C2=NN(c3nc(-c4ccc(Cl)cc4)cs3)C(c3ccccc3)C2)cc1OC (stereo not drawn) [Compound 6d, 4-(4-Chlorophenyl)-2-(3-(3,4-dimethoxyphenyl)-5-phenyl-4,5-dihydro-1H-pyrazol-1-yl)thiazole]
- IC50 [1]: 45.2 ± 1.24 µM
- melting point: 195 to 198 °C

SMILES: CCOC(=O)c1sc(N2N=C(c3ccc(OC)c(OC)c3)CC2c2ccccc2)nc1C (stereo not drawn) [Compound 9d, Ethyl 2-(3-(3,4-Dimethoxyphenyl)-5-phenyl-4,5-dihydro-1H-pyrazol-1-yl)-4-methylthiazole-5-carboxylate]
- IC50 [1]: 24.3 ± 1.39 µM
- melting point: 215 to 218 °C

SMILES: CC(=O)N1N=C(c2ccc(OC3OC4OC5(C)CCC6C(C)CCC(C3C)C46OO5)cc2)CC1c1ccccc1 (stereo not drawn) [I]
- GI50 ([5]; reported pyrazoline-based agent): 0.13 µM

SMILES: COc1ccc(C2=NN(c3nc(-c4ccc(C)cc4)cs3)C(c3ccccc3)C2)cc1OC (stereo not drawn) [Compound 6b, 2-(3-(3,4-Dimethoxyphenyl)-5-phenyl-4,5-dihydro-1H-pyrazol-1-yl)-4-(p-tolyl)thiazole]
- IC50 ([2]; Homo sapiens, MCF7, 48 h): 13.4 ± 0.98 µM
- IC50 [1]: ≥ 50 µM
- melting point: 210 to 215 °C

SMILES: COc1ccc(C2=NN(c3nc(-c4ccccc4)cs3)C(c3ccc(Cl)cc3)C2)cc1OC (stereo not drawn) [Compound 6i, 2-(5-(4-Chlorophenyl)-3-(3,4-dimethoxyphenyl)-4,5-dihydro-1H-pyrazol-1-yl)-4-phenylthiazole]
- IC50 ([2]; Homo sapiens, MCF7, 48 h): 45.4 ± 1.87 µM
- IC50 [1]: 15.8 ± 1.08 µM
- melting point: 208 to 210 °C
